Target: D(2) dopamine receptor (Homo sapiens, UniProt P14416)
Test: ChEBML_61120
Source text: Binding affinity for Dopamine receptor D2 by displacement of [3H]-spiperone

D(2) dopamine receptor, sequence (P14416 whole entry): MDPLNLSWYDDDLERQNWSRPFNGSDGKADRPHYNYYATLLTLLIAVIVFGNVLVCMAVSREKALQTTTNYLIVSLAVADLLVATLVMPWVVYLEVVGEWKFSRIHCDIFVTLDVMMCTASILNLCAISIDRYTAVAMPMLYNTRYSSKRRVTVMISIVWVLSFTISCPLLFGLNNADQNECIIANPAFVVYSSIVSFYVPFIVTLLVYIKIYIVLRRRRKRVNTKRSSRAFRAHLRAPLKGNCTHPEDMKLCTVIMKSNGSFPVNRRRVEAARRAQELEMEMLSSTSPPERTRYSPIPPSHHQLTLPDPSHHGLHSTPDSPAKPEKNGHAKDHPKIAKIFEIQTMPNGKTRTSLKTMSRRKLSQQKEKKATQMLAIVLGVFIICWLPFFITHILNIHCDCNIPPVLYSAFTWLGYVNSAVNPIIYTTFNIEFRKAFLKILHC

Row | Ki [nM] | Compound
1 | 57 | CN1CCOc2c(C(=O)NC[C@H]3CCCN3CCc3ccccc3)cc(Cl)cc21 [6-Chloro-4-methyl-3,4-dihydro-2H-benzo[1,4]oxazine-8-carboxylic acid ((R)-1-phenethyl-pyrrolidin-2-ylmethyl)-amide]
2 | 800 | CN1CCOc2c(C(=O)NC[C@@H]3CCCN3CCc3ccccc3)cc(Cl)cc21 [6-Chloro-4-methyl-3,4-dihydro-2H-benzo[1,4]oxazine-8-carboxylic acid ((S)-1-phenethyl-pyrrolidin-2-ylmethyl)-amide]

Source: BindingDB's records for doi:10.1016/s0960-894x(00)00030-5 (Yoshitomi Pharmaceutical Industries, 2000)
